{
  "source": "paper PMC3687523",
  "about": "(Biochemical pharmacology, 2013)",
  "key": {"rat brain CYP2D [1]": {"system": "rat brain CYP2D"}, "rat brain CYP2D [2]": {"system": "rat brain CYP2D", "settings": "20 μg i.c.v. propranolol"}, "[3]": {"settings": "20 μg i.c.v. propranolol, 30 mg/kg s.c. codeine"}, "[4]": {"settings": "30 min after 30 mg/kg s.c. codeine"}},
  "data": [
    {"smiles": "CC(C)NCC(O)COc1cccc2ccccc12", "note": "(centres unmarked) [propranolol]", "values": [
      {"measurement": "percentage of maximal analgesic effect (%MPE) after codeine, compared to vehicle pretreatment", "setting": "rat brain CYP2D [1]; 20 μg i.c.v. propranolol 24 h before 30 mg/kg s.c. codeine, at 15, 20, 30 and 40 min", "result": "significantly lower"},
      {"measurement": "area under the analgesia-time curve (AUC) 0-30 min after codeine, compared to vehicle pretreatment", "setting": "rat brain CYP2D [1]; [3]", "result": "significantly lower"},
      {"measurement": "area under the analgesia-time curve (AUC) 60-120 min after codeine, compared to vehicle pretreatment", "setting": "rat brain CYP2D [1]; [3]", "result": "Neither inhibitor resulted in lower AUC"},
      {"measurement": "AUC of analgesia after morphine, compared to vehicle pretreatment", "setting": "rat brain CYP2D [1]; 40 μg i.c.v. propranolol, 5 mg/kg s.c. morphine, all time periods", "result": "did not result in significantly different"},
      {"measurement": "%MPE after morphine, compared to vehicle pretreatment", "setting": "rat brain CYP2D [1]; 40 μg i.c.v. propranolol, 5 mg/kg s.c. morphine, all time points", "result": "did not result in significantly different %MPE"},
      {"measurement": "brain morphine concentration, compared to vehicle-pretreated rats", "setting": "rat brain CYP2D [2]; [4]", "result": "significantly lower"},
      {"measurement": "plasma morphine concentration, compared to vehicle-pretreated rats", "setting": "rat brain CYP2D [2]; [4]", "result": "equal"},
      {"measurement": "brain morphine concentrations, propranolol- vs vehicle-pretreated rats", "setting": "rat brain CYP2D [2]; at both 60 and 90 min after 30 mg/kg s.c. codeine", "result": "no significant difference"}
    ]}
  ]
}
